# Laboratory results as given in patent US7514582B2, “2′-substituted 1,1′-biphenyl-2-carboxamides, processes for their preparation, their use as medicaments, and pharmaceutical preparations comprising them” (Sanofi-Aventis Deutschland GmbH, priority 1999, dated 2009).
# Target: T1, Kv1.5 channels from humans (Homo sapiens, UniProt P22460)
# T1 construct: expressed in transfected cells; host or cells: Xenopus laevis oocytes injected with in vitro synthesized RNA
# Test: Kv1.5 currents in Xenopus oocytes, two-microelectrode voltage clamp
# Type: cell-based
# Conditions: not given
# Protocol: Kv1.5 channels from humans were expressed in Xenopus oocytes. For this, oocytes from Xenopus laevis were first isolated and defolliculated. RNA encoding Kv1.5 synthesized in vitro was then injected into these oocytes. After Kv1.5 protein expression for 1-7days, Kv1.5 currents were measured on the oocytes using the two-microelectrode voltage clamp technique. The Kv1.5 channels were in this case as a rule activated using voltage jumps to 0 mV and 40 mV lasting 500 ms. The bath was rinsed with a solution of the following composition: NaCl 96 mM, KCl 2 mM, CaCl2 1.8 mM, MgCl2 1 mM, HEPES 5 mM (titrated with NaOH to pH 7.4). These experiments were carried out at room temperature. The following were employed for data acquisition and analysis: Genedamp amplifier (Axon Instruments, Foster City, USA) and MacLab D/A converter and software (AD Instruments, Castle Hill, Australia). The substances according to the invention were tested by adding them in different concentrations to the bath solution. The effects of the substances were calculated as the percentage inhibition of the Kv1.5 control current which was obtained when no substance was added to the solution. The data were then extrapolated using the Hill equation in order to determine the inhibitory concentration IC50 for the respective substances.
# T1 sequence (P22460 whole entry): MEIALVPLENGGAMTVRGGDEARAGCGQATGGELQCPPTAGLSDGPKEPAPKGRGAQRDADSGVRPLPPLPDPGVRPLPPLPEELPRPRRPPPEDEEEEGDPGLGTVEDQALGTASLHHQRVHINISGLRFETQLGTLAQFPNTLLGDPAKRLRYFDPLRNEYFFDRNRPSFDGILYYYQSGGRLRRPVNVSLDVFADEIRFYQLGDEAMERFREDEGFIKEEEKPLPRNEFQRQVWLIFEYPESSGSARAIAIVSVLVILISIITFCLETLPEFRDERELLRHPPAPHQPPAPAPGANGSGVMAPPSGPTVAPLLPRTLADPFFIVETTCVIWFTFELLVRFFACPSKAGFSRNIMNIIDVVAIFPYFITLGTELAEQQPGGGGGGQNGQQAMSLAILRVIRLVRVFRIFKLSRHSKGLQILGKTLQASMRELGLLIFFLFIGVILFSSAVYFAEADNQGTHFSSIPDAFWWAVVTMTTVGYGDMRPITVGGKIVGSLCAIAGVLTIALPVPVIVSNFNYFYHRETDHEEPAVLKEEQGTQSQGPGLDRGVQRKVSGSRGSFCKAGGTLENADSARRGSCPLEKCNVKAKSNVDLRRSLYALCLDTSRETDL
row,SMILES,IC50 [nM]
1,O=C(NCc1ccccc1-c1ccccc1C(=O)NCCc1ccccc1)OCc1ccc(C(F)(F)F)cc1 [1 a],6100
2,O=C(NCc1ccccc1-c1ccccc1C(=O)NCCc1ccccc1)OCc1ccccc1 [1 b],3300
3,C[C@@H](OC(=O)NCc1ccccc1-c1ccccc1C(=O)NCc1ccc(F)cc1F)c1ccccc1 [1 o],4400
4,O=C(NCc1ccccc1-c1ccccc1C(=O)NCc1ccc(F)cc1F)OCc1ccc(F)cc1 [1 s],1700
5,O=C(NCc1ccccc1-c1ccccc1C(=O)NCc1ccc(F)cc1F)OCCCC(F)(F)F [1 t],1300
6,CCCCOC(=O)NCc1ccccc1-c1ccccc1C(=O)NCCC(C)C [2 d],1700
7,CC(C)CCNC(=O)c1ccccc1-c1ccccc1CNC(=O)OCc1ccccc1Cl [2 e],3400
8,COC(=O)c1ccc(OC(=O)NCc2ccccc2-c2ccccc2C(=O)NCCC(C)C)cc1 [2 h],2500
9,CC(C)(C)COC(=O)NCc1ccccc1-c1ccccc1C(=O)NCCc1ccccc1 [2 i],3300
10,O=C(NCc1ccccc1-c1ccccc1C(=O)NCc1ccc(F)cc1F)Oc1ccc(F)cc1 [2 j],2500
11,O=C(NCc1ccccc1-c1ccccc1C(=O)NCc1ccc(F)cc1F)Oc1ccccc1 [2 k],3800
12,O=C(NCCc1ccccc1)c1ccccc1-c1ccccc1CNS(=O)(=O)c1ccccc1 [3 d],1700
13,O=C(NCc1ccccc1)c1ccccc1-c1ccccc1CNS(=O)(=O)c1cccc(F)c1 [3 k],2400
14,COc1ccc(CC(=O)NCc2ccccc2-c2ccccc2C(=O)Nc2ccc(OC)cc2)cc1 [4 g],3400
15,CN(Cc1ccccc1)C(=O)c1ccccc1-c1ccccc1CNC(=O)OCc1ccccc1 [6 a],4400
16,O=C(NCc1ccccc1-c1ccccc1C(=O)NC1CCCCC1)OCc1ccccc1 [6 b],1800
17,O=C(NCc1ccccc1-c1ccccc1C(=O)Nc1ccccc1)OCc1ccccc1 [6 c],2500
18,CN(CCc1ccccn1)C(=O)c1ccccc1-c1ccccc1CNC(=O)OCc1ccccc1 [6 d],3100
19,CCCCN(CCCC)C(=O)c1ccccc1-c1ccccc1CNC(=O)OCc1ccccc1 [6 e],3600
20,O=C(NCc1ccccc1-c1ccccc1C(=O)NCC(F)(F)F)OCc1ccccc1 [6 h],3000
21,O=C(NCc1ccccc1-c1ccccc1C(=O)NCCc1cccc[n+]1[O-])OCc1ccccc1 [7 a],~6000
22,O=C(NCc1ccccc1-c1ccccc1C(=O)NCCc1cccnc1)OCc1ccccc1 [8 aa],800
23,CC(C)C[C@@H](NC(=O)c1ccccc1-c1ccccc1CNC(=O)OCc1ccccc1)C(N)=O [8 ac],1100

row,SMILES,IC50 [nM]
1,COC(=O)[C@H](Cc1ccccc1)NC(=O)c1ccccc1-c1ccccc1CNC(=O)OCc1ccccc1 [8 b],900
2,CC(C)(C)OC(=O)NCc1ccccc1-c1ccccc1C(=O)NCc1ccccn1 [8 d],6400
3,CC(C)(C)OC(=O)NCc1ccccc1-c1ccccc1C(=O)Nc1ccc(F)cc1 [8 k],3100
4,CC(C)(C)OC(=O)NCc1ccccc1-c1ccccc1C(=O)N[C@@H](CO)Cc1ccccc1 [8 m],5200
5,COC(=O)C(Cc1ccccn1)NC(=O)c1ccccc1-c1ccccc1CNC(=O)OC(C)(C)C (stereo not drawn) [8 n],3700
6,CC(C)C(NC(=O)c1ccccc1-c1ccccc1CNC(=O)OCc1ccccc1)C(N)=O (stereo not drawn) [8 p],1400
7,CCN(Cc1ccncc1)C(=O)c1ccccc1-c1ccccc1CNC(=O)OCc1ccccc1 [8 q],7300
8,COC(=O)C(CC(C)C)NC(=O)c1ccccc1-c1ccccc1CNC(=O)OCc1ccccc1 (stereo not drawn) [8 r],1000
9,O=C(NCc1ccccc1-c1ccccc1C(=O)NCCCC(F)(F)F)OCc1ccccc1 [8 s],1000
10,CN(C)c1ccc(CNC(=O)c2ccccc2-c2ccccc2CNC(=O)OCc2ccccc2)cc1 [8 x],3300
11,CC(C)NC(=O)CNC(=O)c1ccccc1-c1ccccc1CNC(=O)OCc1ccccc1 [8 y],2800
12,COC(=O)C(Cc1ccccn1)NC(=O)c1ccccc1-c1ccccc1CNC(=O)OCc1ccccc1 (stereo not drawn) [8 z],1600
13,COCCNC(=O)c1ccccc1-c1ccccc1CNC(=O)Nc1ccc(Cl)cc1 [11 g],7800
14,O=C(NCc1ccccc1-c1ccccc1C(=O)NCc1ccccn1)Nc1ccc(F)cc1F [11 n],5900
15,O=C(NCc1ccccc1-c1ccccc1C(=O)NCCOc1ccccc1)Nc1ccc(F)cc1F [11 p],7300
16,Cc1cccc(S(=O)(=O)NCc2ccccc2-c2ccccc2C(=O)N[C@@H](Cc2ccccc2)C(N)=O)c1 [12 f],11300
17,CC(C)C[C@H](NC(=O)c1ccccc1-c1ccccc1CNC(=O)OCc1ccccc1)C(=O)Nc1ccccc1 [13 b],~3000
18,CC(C)C[C@H](NC(=O)c1ccccc1-c1ccccc1CNC(=O)OCc1ccccc1)C(=O)NCc1ccccc1 [13 c],1400
19,CC(C)C[C@H](NC(=O)c1ccccc1-c1ccccc1CNC(=O)OCc1ccccc1)C(=O)NCC(F)(F)F [13 d],500
20,CC(C)CCNC(=O)[C@H](CC(C)C)NC(=O)c1ccccc1-c1ccccc1CNC(=O)OCc1ccccc1 [13 e],2800
21,COc1ccc(C(=O)NCc2ccccc2-c2ccccc2C(=O)N[C@@H](CC(C)C)C(=O)NCC(F)(F)F)cc1 [13 f],3400
22,CC(C)C[C@H](NC(=O)c1ccccc1-c1ccccc1CNC(=O)CCc1ccccc1)C(=O)NCC(F)(F)F [13 g],1100

# The next lines start with the values.
row,IC50 [nM],SMILES
1,400,CC(OC(=O)NCc1ccccc1-c1ccccc1C(=O)NCCc1ccccn1)c1ccc(C(F)(F)F)cc1 (racemic) [1 f]
2,1000,O=C(NCc1ccccc1-c1ccccc1C(=O)NCCc1ccccn1)OCc1ccc(C(F)(F)F)cc1 [1 d]
3,500,O=C(NCc1ccccc1-c1ccccc1C(=O)NCCc1ccccn1)OCc1ccc(F)cc1 [1 e]
4,400,C[C@H](OC(=O)NCc1ccccc1-c1ccccc1C(=O)NCCc1ccccn1)c1ccc(C(F)(F)F)cc1 [1 g]
5,4300,C[C@@H](OC(=O)NCc1ccccc1-c1ccccc1C(=O)NCCc1ccccn1)c1ccc(C(F)(F)F)cc1 [1 h]
6,1700,O=C(NCc1ccccc1-c1ccccc1C(=O)NCCc1ccccn1)OCCCC(F)(F)F [1 i]
7,1400,CC(OC(=O)NCc1ccccc1-c1ccccc1C(=O)NCCc1ccccn1)c1ccccc1C(F)(F)F (stereo not drawn) [1 l]
8,700,CC(OC(=O)NCc1ccccc1-c1ccccc1C(=O)NCCc1ccccn1)c1cccc(C(F)(F)F)c1 (stereo not drawn) [1 m]
9,1400,CC(OC(=O)NCc1ccccc1-c1ccccc1C(=O)NCCc1ccccn1)c1c(F)cccc1F (stereo not drawn) [1 n]
10,800,CCC[C@H](OC(=O)NCc1ccccc1-c1ccccc1C(=O)NCCc1ccccn1)c1ccccc1 [1 r]
11,800,O=C(NCc1ccccc1-c1ccccc1C(=O)NCc1ccccn1)OCc1ccccc1 [1 u]
12,1900,O=C(NCCc1ccccn1)c1ccccc1-c1ccccc1CNS(=O)(=O)c1ccccc1 [3 p]
13,1500,O=C(NCCc1ccccn1)c1ccccc1-c1ccccc1CNS(=O)(=O)c1cccc(F)c1 [3 r]
14,1800,COc1ccc(CC(=O)NCc2ccccc2-c2ccccc2C(=O)NCCc2ccccn2)cc1 [4 d]
15,1800,COc1ccc(NC(=O)c2ccccc2-c2ccccc2CNC(=O)CCc2ccccc2)cc1 [4 h]
16,7100,COc1ccc(CC(=O)NCc2ccccc2-c2ccccc2C(=O)NCCc2ccncc2)cc1 [4 j]
17,2200,CCOc1ccc(CCC(=O)NCc2ccccc2-c2ccccc2C(=O)NCCc2ccccn2)cc1 [4 k]
18,800,CC(CC(=O)NCc1ccccc1-c1ccccc1C(=O)NCCc1ccccn1)c1ccccc1 (stereo not drawn) [4 l]
19,7800,O=C(NCc1ccccc1)NCc1ccccc1-c1ccccc1C(=O)NCCc1ccccn1 [5 c]
20,1900,C[C@H](NC(=O)NCc1ccccc1-c1ccccc1C(=O)NCCc1ccccn1)c1ccccc1 [5 d]
21,7200,C[C@@H](NC(=O)NCc1ccccc1-c1ccccc1C(=O)NCCc1ccccn1)c1ccccc1 [5 e]
22,1200,O=C(NCc1ccccc1-c1ccccc1C(=O)NCCc1ccncc1)OCc1ccccc1 [8 ab]
23,8400,CC(C)(C)OC(=O)NCc1ccccc1-c1ccccc1C(=O)NCCc1ccccn1 [8 o]
24,2000,O=C(NCCc1ccccn1)c1ccccc1-c1ccccc1CNC(=S)Nc1ccccc1 [9 c]
25,2200,O=C(NCCc1ccccn1)c1ccccc1-c1ccccc1CNC(=S)NCc1ccccc1 [9 f]
26,7300,O=C(NCc1ccccc1-c1ccccc1C(=O)NCCc1ccccn1)Nc1ccc(F)cc1F [11 b]
27,3300,O=C(NCc1ccccc1-c1ccccc1C(=O)NCCc1ccccn1)Nc1ccc(C(F)(F)F)cc1 [11 m]
28,4400,O=C(NCc1ccccc1-c1ccccc1C(=O)NCCc1ccccn1)Nc1cccc(C(F)(F)F)c1 [11 o]

# Same assay, conditions: human Kv1.5 expressed in Xenopus laevis oocytes; voltage jumps to 0 mV and 40 mV, 500 ms; room temperature; inhibition of Kv1.5 control current, Hill equation
row,SMILES,IC50 [nM]
1,O=C(NCc1ccccc1-c1ccccc1C(=O)NCc1ccccn1)Nc1ccc(C(F)(F)F)cc1 [11 d],3300
2,COc1cc(CNC(=O)c2ccccc2-c2ccccc2CNC(=O)Nc2ccc(F)cc2F)cc(OC)c1OC [11 h],5800

# Continued, values first:
row,IC50 [nM],SMILES
1,2200,O=C(NCc1ccccn1)c1ccccc1-c1ccccc1CNC(=S)NCCc1ccccc1 [9 g]
2,2300,COc1ccc(NC(=O)NCc2ccccc2-c2ccccc2C(=O)NCCc2ccccn2)cc1 [11 a]
3,2700,O=C(NCc1ccccc1-c1ccccc1C(=O)NCCc1ccccn1)Nc1ccc(Cl)cc1 [11 l]
